Among the test systems are TK-10 renal; MCF7 breast; HS 578T breast; NCI-H23 lung; LOX IMVI melanoma; 786-0 renal; NCI-H226 lung; SW-620 colon; SF-539 CNS; NCI-H522 lung.
Common to all, as to assay: NCI-60 cell line screen, 48 h

Several values for one entry are separate records, joined by “and”; a condition that tells them apart may be missing. Equal values may be shown once.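 The compound was tested at five concentrations on cells cultured in 96-well plates, with a 48-hour exposure period. At the GI50, growth is halved. Definition used: TGI = concentration required for complete inhibition of growth.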

For the molecule `CC1(C)C(CC(=O)O)CCCC1CC(=O)O` (centres undefined), the TGI with TK-10 renal is above 100 µM; in the test with MCF7 breast, above 100 µM; with HS 578T breast it was above 100000 nM; in the test on NCI-H23 lung it was above 100 µM; with LOX IMVI melanoma, above 100 µM; in the test on 786-0 renal it was above 100 µM. Also, the TGI in the test with NCI-H226 lung and in the test on SW-620 colon was above 100 µM each time.
As for `CC(=O)O[C@@H]1CC[C@@]2(C)C(=O)C34C[C@@]5(C)C([C@@H](C)CCCC(C)C)CCC5(C)[C@](O)(O3)C(=O)[C@H]4C2C1(C)C` (some centres undefined), the TGI was 30.5 µM in the test with TK-10 renal; 27.4 µM with NCI-H23 lung; 32.1 µM in the test with LOX IMVI melanoma; 25.6 µM with 786-0 renal; 29.6 µM with NCI-H226 lung; 39.4 µM in the test with SF-539 CNS. The results for the TGI with SW-620 colon and in the test on NCI-H522 lung were 24.5 µM and 25.5 µM, respectively.
As to `[CH3][Hg]/[N]=C(/N)NC#N`, the GI50 with TK-10 renal is 3.35 µM; in the test on NCI-H23 lung, 10.2 µM; in the test on LOX IMVI melanoma it was 3.29 µM; in the test on 786-0 renal, 10.2 µM; in the test with NCI-H226 lung, 15.6 µM; with SF-539 CNS it was 17.7 µM. Further, the GI50 with SW-620 colon is 2230 nM; with NCI-H522 lung it was 1290 nM. Moreover, the TGI came to 14.8 µM with TK-10 renal; 24.5 µM with NCI-H23 lung; 14.9 µM in the test with LOX IMVI melanoma; 22.4 µM with 786-0 renal; 32.5 µM in the test on NCI-H226 lung; 32.4 µM in the test with SF-539 CNS. Moreover, the results for the TGI with SW-620 colon and in the test on NCI-H522 lung were 5.28 µM and 2.57 µM, respectively.
With `CN(C)c1ccc(/C=c2/c3cc(O)ccc3n3c2cc(-c2ccccc2)[n+]3C)cc1`, the GI50 in the test on TK-10 renal was 4.88 µM; with MCF7 breast, 1180 nM; with 786-0 renal, 1.31 µM; with SW-620 colon it was 1770 nM. The TGI in the test with TK-10 renal was above 100 µM; in the test on MCF7 breast, above 100 µM; in the test on HS 578T breast, 1250 nM; in the test with NCI-H23 lung, 4.64 µM; with LOX IMVI melanoma, 2.47 µM; in the test on NCI-H226 lung it was above 100 µM. The molecule also displayed a TGI in the test with NCI-H522 lung of 1.75 µM.
With `O=C(Cc1nc2ccccc2o1)C(=O)Nc1ccc(Cl)cc1Cl`, the TGI with NCI-H23 lung, with 786-0 renal, in the test on NCI-H226 lung, in the test with SF-539 CNS and in the test on SW-620 colon was above 100 µM each time.
Regarding `CC1=C(C(=O)Nc2ccc(C)cc2)C(c2cccc([N+](=O)[O-])c2)C(C(=O)Nc2ccc(C)cc2)=C(C)N1`, the TGI is above 100 µM in the test on TK-10 renal; 70.4 µM with NCI-H23 lung; 32.3 µM in the test on LOX IMVI melanoma; above 100 µM with 786-0 renal; above 100 µM with NCI-H226 lung; 36.9 µM with SF-539 CNS. Moreover, the TGI is above 100 µM in the test with SW-620 colon and 93.8 µM in the test with NCI-H522 lung.
Turning to `NC(=O)c1csc(-c2ccc(CO)o2)n1`, the TGI in the test with TK-10 renal, in the test with MCF7 breast, in the test with NCI-H23 lung, with LOX IMVI melanoma, in the test on 786-0 renal and in the test with NCI-H226 lung was above 100 µM throughout. Also, the TGI in the test with SF-539 CNS, with SW-620 colon and in the test on NCI-H522 lung was above 100 µM each time.
As for `COc1ccc2nc3ccccc3c(NCCN(CCCl)CCCl)c2c1`, the TGI in the test with TK-10 renal amounted to 5.59 µM; in the test on 786-0 renal, 2.4 µM; in the test on NCI-H226 lung it was 4.74 µM; in the test on SW-620 colon, 2.51 µM; in the test with NCI-H522 lung, 1.75 µM.
For the molecule `N#CCCN(c1ccc(C=O)cc1)S(=O)(=O)c1ccccc1`, the TGI in the test on LOX IMVI melanoma, in the test with 786-0 renal, in the test with NCI-H226 lung, in the test with SF-539 CNS, in the test with SW-620 colon and in the test with NCI-H522 lung was above 100 µM in each case.
Turning to `CC(=O)Nc1ccc(C2=N/C(=C\c3ccc(Cl)cc3)C(=O)O2)cc1`, the TGI in the test with TK-10 renal was above 100 µM; in the test with NCI-H23 lung it was above 100 µM; in the test on LOX IMVI melanoma, 35.6 µM; in the test with 786-0 renal it was 51.6 µM; with NCI-H226 lung it was above 100 µM; in the test on SF-539 CNS, above 100 µM. Further, the TGI with SW-620 colon worked out at 22.8 µM; in the test with NCI-H522 lung it was 63.7 µM.
As to `O=C(CC1(O)C(=O)Nc2ccccc21)c1ccccc1O` (centres undefined), the TGI with TK-10 renal, with NCI-H23 lung, in the test on LOX IMVI melanoma, in the test with 786-0 renal, in the test on NCI-H226 lung and with SF-539 CNS was above 100 µM in each case. In addition, the TGI in the test on SW-620 colon and in the test with NCI-H522 lung was above 100 µM in each case.
Take `Cc1cc(C)nc(NS(=O)(=O)c2ccc(NC(=O)COC(=O)c3cccc4c(=O)c5ccccc5[nH]c34)cc2)n1`: the TGI is above 100 µM with TK-10 renal; above 100 µM in the test with NCI-H23 lung; 40.7 µM in the test on LOX IMVI melanoma; 58.9 µM in the test with 786-0 renal; above 100 µM in the test with NCI-H226 lung; 34 µM with SF-539 CNS. Also, the TGI in the test on SW-620 colon amounted to 83.9 µM; in the test on NCI-H522 lung, 70.9 µM.
As for `COc1ccc([C@@H]2OC(=O)C3C2C(=O)O[C@H]3c2ccc(OC)cc2)cc1` (some centres undefined), the TGI in the test with NCI-H23 lung, in the test with 786-0 renal, in the test with SF-539 CNS and in the test with SW-620 colon was above 100 µM in each case.
Consider `COC(=O)C(C(=O)C(=O)Nc1ccccc1C)c1nc2ccc([N+](=O)[O-])cc2[nH]c1=O` (centres undefined), for which the TGI with TK-10 renal, with NCI-H23 lung, in the test with LOX IMVI melanoma, with 786-0 renal, with NCI-H226 lung and in the test with SF-539 CNS was above 100 µM in each case. Besides, the TGI in the test on SW-620 colon and in the test on NCI-H522 lung was above 100 µM throughout.
As for `Cc1cc(Cl)cc2c1NC(=O)C2(O)C(C(=O)c1ccccc1)c1ccccc1` (centres undefined), the TGI is above 100 µM with TK-10 renal; above 100 µM in the test on NCI-H23 lung; > 100 µM and 46.1 µM in the test on LOX IMVI melanoma; > 100 µM and 29.3 µM in the test on 786-0 renal; > 100 µM and 58.3 µM with NCI-H226 lung; 39.7 µM in the test on SF-539 CNS. In addition, the TGI in the test on SW-620 colon and in the test with NCI-H522 lung was above 100 µM throughout. The GI50 with 786-0 renal was 38.2 µM and 12.9 µM.
As for `CCOC(=O)C(=O)C(C#N)c1ccc(Cl)cc1` (centres undefined), the TGI in the test on TK-10 renal, with NCI-H23 lung, with LOX IMVI melanoma, with 786-0 renal, in the test with NCI-H226 lung and in the test on SF-539 CNS was above 100 µM in each case. In addition, the TGI in the test on SW-620 colon and in the test with NCI-H522 lung was above 100 µM in each case.

The values above are taken from PubChem BioAssay (NCI).
